Experimental data reported in US11980645B2, “Bile acids and use in disease treatment” (The Regents of the University of California, priority 2019, dated 2024).

Legend:
[1] = system: human fecal batch culture; assay: Incubation with actively growing human fecal batch culture (metabolism by microbiota); assay type: in vitro ADME; details: 10 μM bile acid, 24 h
Excerpt: FIGS. […]. Distribution and metabolism of novel conjugated bile acids. FIG. 9a) Molecular network of SPF duodenum MS/MS data and synthesized amino acid conjugated bile acids. LC-MS/MS data from synthetic standards was networked with murine samples and spectral matching through molecular networking is indicated by node greyscale. Mirror plots showing the alignment between the murine and standards are shown. Nodes shaped as arrowheads had hits in the GNPS libraries and node size is scaled to the spectral count. Tauro=Taurocholic acid. These experiments were repeated twice. FIG. 9b) 3D-molecular cartography of the mean abundance of the newly discovered conjugates mapped onto a 3D-rendered model of the murine GI tract as a heatmap according to the greyscale. Organs are labeled as described in FIG. 1. FIG. 9c) Molecular network of GF and SPF portal and peripheral blood conjugated bile acids. Nodes are colored by source as either GF and SPF or portal/peripheral blood. Arrowhead nodes represent known compounds in the GNPS spectral database, circular nodes represent unknowns. The annotations are through spectral matches against reference libraries (level 2 or 3^3). FIG. 9d) Mean area under curve abundance and standard deviations of bile acids of interest during incubation with an actively growing batch human fecal culture for 24 h (n=3). FIG. 9e) Molecular network of novel conjugated bile acids after incubation in a human fecal batch culture experiment. Each node represents a unique MS/MS spectrum and arrowhead shaped nodes indicate known spectra in the GNPS database. The nodes are greyscale by their retention time according to the legend and the mass shift between nodes are mapped onto the edge representing the cosine connection between related spectra. The H2 mass shift representing oxidation of the novel conjugates is shown. FIG. 9f) Mean ion intensity and standard deviations of the dehydrogenated forms of Phe-chol, Tyr-chol and Leu-chol through the 24 h batch fecal culture incubation (n=3).
Fecal Culture Bioreactor Inoculation. A 4 g stool sample was resuspended in 40 mL modified yeast casitone fatty acids media (mYCFA, DMSZ recipe) with 0.25% Antifoam B Silicon Emulsion (Baker) in a vinyl anaerobic chamber (Coy). The resuspension was centrifuged at 500× g for 5 minutes to pellet solids. The supernatant was decanted through a sterile […] filter. The filtrate was centrifuged at 4450× g for 10 minutes to pellet cells. The supernatant was discarded, and the pellet was resuspended in 40 mL mYCFA. The resuspension was drawn into a 60 mL syringe and injected into a 500 mL vessel of an Infors Multifors 2 bioreactor. The chemostat process parameters was modified from a previous process developed in^26. The chemostat volume parameters were; 400 mL culture volume, 24-hour retention rate, 50 mL/min nitrogen, stirrer at 250 rpm, and 37° C. temperature. […] 15 μL stocks were added to 12 mL mYCFA. After 11 days of continuous culturing, 24 mL bioreactor culture was withdrawn and transferred to the anaerobic chamber. 3 mL culture was added to the 12 mL mYCFA aliquots with the bile acids, for a total volume of 15 mL and final concentration of 10 μM bile acid. The cultures were vortexed and split into three 5 mL aliquots. At time 0 (blanks for each bile acid), 1, 3, 6, 12 and 24 hours, 0.1 mL aliquots were removed from the samples for metabolomics and 16S rRNA gene sequencing. […]

[2] = LC-MS/MS screen of murine portal and peripheral blood for conjugated bile acids
Excerpt: Portal and peripheral blood was collected from additional SPF (n=4) and GF (n=6) mice and screened for the presence of conjugated bile acids.
Bile Acids in Murine Portal and Peripheral Blood. An additional 4 SPF and 6 GF female mice of the same strain analyzed for the initial study on the microbial metabolome were raised for analysis of blood. Portal blood and peripheral blood were sampled as described in the methods section and analyzed with the same LC-MS/MS protocols as the original animals.

[3] = system: FXR effector genes Fgf15, Shp, Cyp7a1, Cyp8b1; assay: Bile acid gavage of mice, RT-qPCR of downstream FXR effector genes in ileum and liver; details: for Fgf15 expression in the intestine, increase / Shp expression in the intestine, increase: oral gavage 500 mg/kg in corn oil
Experimental: The gene expression of Fgf15 and Shp in the ileum and Shp, Cyp8b1 and Cyp7a1 in the liver of mice gavaged with bile acids of interest were analyzed using quantitative reverse transcriptase-PCR analysis. The expression levels were normalized to the cellular housekeeping gene ribosomal phosphoprotein PO (36B4).
Bile acid Gavage of Mice. Eight-week-old Male C57BL/6J mice (Jackson Laboratory) were acclimated for 14 days and housed in groups of two throughout the duration of the experiment to mitigate cage effects. Mice were then dosed 2 times (24 hour) or 4 times (72 hour) (t=0 hr, t=24 hr, t=48 hr, t=72 hr) by oral gavage with either a mock control of corn oil without bile acids, or corn oil infused Tyr-chol (500 mg/kg body weight), Leu-chol (500 mg/kg body weight), cholic acid (500 mg/kg body weight) or the control FXR agonist GW4064 (10 mg/kg body weight). Starting 3 hours after the last gavage (t=75 hr, 72 hour treatment or t=25, 24 hour treatment), mice were euthanized by CO2 asphyxiation and samples were collected within a 6 hour period and snap frozen in a liquid nitrogen bath and stored at −80° C. prior to analysis. […] Ileum and liver samples were used for qPCR.
RT-qPCR Analysis of Downstream FXR Gene Expression. Mouse liver and ileum segments were directly homogenized in TRIzol and total RNA isolated. cDNA was synthesized from 1 μg of DNase-treated total RNA using Bio-Rad iScript Reverse Transcription supermix (#1708841) and mRNA levels of Fgf15, Shp, Cyp7b1 and Cyp7a1 were quantified by quantitative PCR with Advanced Universal SyBr Green Supermix (Bio-Rad, cat #725271). All samples were run in technical triplicates and relative mRNA levels were calculated by using the standard curve methodology and normalized to 36B4.

human FXR = biological target: T1, human FXR (Homo sapiens, UniProt Q96RI1); assay: FXR luciferase reporter assay in HEK-293 cells; details: for human FXR agonism: HEK-293 luciferase reporter
T1 sequence (Q96RI1 1-486): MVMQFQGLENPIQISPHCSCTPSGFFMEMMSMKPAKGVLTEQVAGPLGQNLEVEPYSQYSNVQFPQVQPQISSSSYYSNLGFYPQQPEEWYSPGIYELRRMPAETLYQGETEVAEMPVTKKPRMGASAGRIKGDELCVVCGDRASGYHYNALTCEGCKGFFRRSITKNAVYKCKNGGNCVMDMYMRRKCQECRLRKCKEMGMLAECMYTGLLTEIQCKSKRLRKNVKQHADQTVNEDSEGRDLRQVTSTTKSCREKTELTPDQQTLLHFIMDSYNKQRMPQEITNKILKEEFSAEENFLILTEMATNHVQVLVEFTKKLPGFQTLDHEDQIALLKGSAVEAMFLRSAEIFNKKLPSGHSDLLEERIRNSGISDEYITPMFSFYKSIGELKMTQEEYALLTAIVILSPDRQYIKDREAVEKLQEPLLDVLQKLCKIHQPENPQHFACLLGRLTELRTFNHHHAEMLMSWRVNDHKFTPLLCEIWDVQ
T1 sequence (P19793 1-462 partner): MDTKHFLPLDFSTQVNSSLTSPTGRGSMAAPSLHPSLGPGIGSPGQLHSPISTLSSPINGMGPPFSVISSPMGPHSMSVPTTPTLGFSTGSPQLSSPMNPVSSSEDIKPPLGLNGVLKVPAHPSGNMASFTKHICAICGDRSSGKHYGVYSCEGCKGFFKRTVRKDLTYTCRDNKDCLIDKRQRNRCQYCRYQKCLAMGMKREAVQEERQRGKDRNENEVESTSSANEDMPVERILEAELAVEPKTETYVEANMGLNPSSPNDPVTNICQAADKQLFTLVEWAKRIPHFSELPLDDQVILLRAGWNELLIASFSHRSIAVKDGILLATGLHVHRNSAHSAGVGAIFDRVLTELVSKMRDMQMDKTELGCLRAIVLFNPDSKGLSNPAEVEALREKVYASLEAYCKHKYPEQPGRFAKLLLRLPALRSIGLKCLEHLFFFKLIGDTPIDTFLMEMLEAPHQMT
Experimental: To assess the ability of the novel bile acids from the invention to affect human FXR signaling, a luciferase reporter assay was established in HEK-293 embryonic kidney cells^39.
Human kidney cell line HeK-293 was obtained from American Type Culture Collection (ATCC CRL-1573, tested for Mycoplasma contamination every 6 months). These cells were chosen due to their high transfectability and low FXR expression which allows for a robust signal to noise ratio. These 293 cells were cultured in Dulbecco's modified Eagle's medium/F-12 (DMEM) supplemented with 10% (V/V heat-inactivated fetal calf serum (FBS) and 100 units/ml penicillin G and 100 μg/ml streptomycin. 10,000 cells were seeded per well in 96-well plates one day before transfection of plasmids. DNA was transiently transfected by Lipofectamine 2000 and Opti-MDM in fasting state. The ratio of plasmid used in per well were 50 ng of FXR response element (FXRE)/luciferase reporter plasmid, 10 ng of pCMV-3flag-FXR (human) plasmid, 10 ng of pCMV-RXR (human) plasmid, and 5 ng of Renilla luciferase reporter plasmid as internal standard for transfection efficiency. […] Cells were harvested 24 hrs later and lysed with passive lysis buffer (Promega). Luciferase activities were measured by the Dual-Luciferase Reporter (DLR™) Assay kit and read by Luminometer (Perkin Elmer). The final Luciferase activities were normalized by dividing the relative light units by Renilla luciferase activity. Statistical analyses were performed using Prism software. Each dosage was done in 12 replicates.

Row | SMILES | deconjugation by the microbiota [1] | presence in portal and peripheral blood ([2]; mouse, in vivo) | liver Cyp7a1 expression vs corn oil control (significance) ([3]; gavage, 24 hrs) | liver Cyp8b1 expression vs corn oil control (significance) ([3]; gavage, 24 hrs) | ileum Fgf15 signaling vs corn oil control (significance) ([3]; gavage, 72 hrs) | ileum Shp signaling vs corn oil control (significance) ([3]; gavage, 72 hrs) | liver Cyp7a1 expression vs corn oil control (significance) ([3]; gavage, 72 hrs) | liver Cyp8b1 expression vs corn oil control (significance) ([3]; gavage, 72 hrs) | other results
1 | C[C@H](CCC(=O)NCC(=O)O)[C@H]1CC[C@H]2[C@@H]3[C@H](O)C[C@@H]4C[C@H](O)CC[C@]4(C)[C@H]3C[C@H](O)[C@]12C [GCA, glycocholic acid, reference compound] | deconjugation readily occurred | present |  |  |  |  |  |  | oxidation of the cholate core by microbial enzymes [1]: no concurrent oxidation
2 | CC(C)c1onc(-c2c(Cl)cccc2Cl)c1COc1ccc(/C=C/c2cccc(C(=O)O)c2)c(Cl)c1 [GW4064, reference compound] |  |  |  |  |  |  |  |  | ileum Shp expression vs corn oil control (significance) ([3]; gavage, 24 hr): significance was also reached
3 | CC(C)C[C@H](NC(=O)CC[C@@H](C)[C@H]1CC[C@H]2[C@@H]3[C@H](O)C[C@@H]4C[C@H](O)CC[C@]4(C)[C@H]3C[C@H](O)[C@]12C)C(=O)O [Leu-chol, leucocholic acid] | not deconjugated | not found | significantly reduced | significantly reduced | significantly increased | significantly increased | significantly reduced | significantly reduced | liver Shp expression vs corn oil control (significance) ([3]; gavage, 72 hrs): significantly elevated
4 | C[C@H](CCC(=O)N[C@@H](Cc1ccccc1)C(=O)O)[C@H]1CC[C@H]2[C@@H]3[C@H](O)C[C@@H]4C[C@H](O)CC[C@]4(C)[C@H]3C[C@H](O)[C@]12C [Phe-chol, phenylalanocholic acid] | not deconjugated | not found |  |  |  |  |  |  | EC50 (human FXR): 4500 nM; human FXR agonism (human FXR): strong human FXR agonists
5 | C[C@H](CCC(=O)NCCS(=O)(=O)O)[C@H]1CC[C@H]2[C@@H]3[C@H](O)C[C@@H]4C[C@H](O)CC[C@]4(C)[C@H]3C[C@H](O)[C@]12C [TCA, Taurocholic acid, reference compound] |  |  |  |  |  |  |  |  | presence in portal and peripheral blood ([2]; SPF (n=4) and GF (n=6) mice, endogenous): present
6 | C[C@H](CCC(=O)N[C@@H](Cc1ccc(O)cc1)C(=O)O)[C@H]1CC[C@H]2[C@@H]3[C@H](O)C[C@@H]4C[C@H](O)CC[C@]4(C)[C@H]3C[C@H](O)[C@]12C [Tyr-chol, tyrosocholic acid] | not deconjugated | not found | significantly reduced | significantly reduced | significantly increased | significantly increased | significantly reduced | significantly reduced | EC50 (human FXR): 140 nM; human FXR agonism (human FXR): strong human FXR agonists; ileum Fgf15 expression vs corn oil control (significance) ([3]; gavage, 24 hr): significantly elevated; Shp expression in the liver ([3]; gavage, 24 hrs): did not change detectably; liver Cyp7a1 expression ([3]; gavage, 24 hrs): 9 % of control; liver Cyp8b1 expression ([3]; gavage, 24 hrs): 69 % of control; Shp expression in the liver, increase ([3]; gavage, 72 hrs): 2.3 fold; liver Shp expression vs corn oil control (significance) ([3]; gavage, 72 hrs): significantly elevated; liver Cyp7a1 expression ([3]; gavage, 72 hrs (4 gavages)): 8 % of control; liver Cyp8b1 expression ([3]; gavage, 72 hrs (4 gavages)): 2 % of control; Fgf15 expression in the intestine, increase ([3]; 24 hrs): 12.2 fold; Shp expression in the intestine, increase ([3]; 24 hrs): 13.3 fold; Fgf15 expression in the intestine, increase ([3]; 72 hrs (4 gavages)): 6.2 fold; Shp expression in the intestine, increase ([3]; 72 hrs (4 gavages)): 9.3 fold
7 | C[C@H](CCC(=O)O)[C@H]1CC[C@H]2[C@@H]3[C@H](O)C[C@@H]4C[C@H](O)CC[C@]4(C)[C@H]3C[C@H](O)[C@]12C [cholic acid, reference compound] |  |  | significantly reduced | significantly reduced | significantly increased | significantly increased | significantly reduced | significantly reduced | ileum Shp expression vs corn oil control (significance) ([3]; gavage, 24 hr): significance was also reached
